For the assay, the system named is infiltration of NK cells into ECM (collagen) toward cancer cells (A549). Kind of assay: NK cell infiltration in tumor microenvironment (TME) simulating organ-on-a-chip model. The class given is cell-based. The settings on record: co-treatment with NK cells and M5 versus NK cells alone; 48 hours; high-concentration collagen cell barrier model. From the text:
The efficacy as a cancer adjuvant was examined by administering tumor microenvironment (TME) simulating models (organ-on-a-chips) with NK cells and the indicator component M5 for the active ingredient of the present disclosure.
NK cells, known to have anti-cancer efficacy as immune cells, were examined for a change in infiltration ability into tumor tissues according to whether or not NK cells were co-administered with M5. The qualification criterion was the infiltration ability of immune cells into ECM, which was determined by the infiltration distance of NK cells and whether or not the number of infiltrating cells was increased. Collagen was selected as a representative type of ECM. The cells were seeded into the chips under a […] collagen condition, and after 6 hours and 48 hours, the infiltration of NK cells toward the medium and cancer cell (A549) channels was observed.
A comparison was made for the infiltration ability of NK cells between the treatment with NK cells alone and the co-treatment with NK cells and M5, for 48 hours in high-concentration collagen cell barrier models.

The values that follow come from patent US20200376011A1, “COMPOSITION FOR TREATING CANCER INCLUDING ALGINATE OLIGOSACCHARIDE AS AN ACTIVE INGREDIENT” (BIO3S, INC, priority 2019, published 2020).

penta-mannuronic acid sodium salt [M5]: the “infiltration ability of NK cells into cancer cells” value is given as “enhanced”.
